Test results from ChEMBL document CHEMBL5150025, “Exploratory study of oxatomide derivatives with high P2X7 receptor inhibitory activity” (Bioorg Med Chem Lett, 2022).

These molecules were tested against T1, P2X purinoceptor 7 (Homo sapiens, UniProt Q99572) (assay: Antagonist activity at P2X7 receptor in human RPMI-8226 cells assessed as inhibition of ATP-induced Ca2+ influx by fura-2 staining based assay). Details: not given.
T1 sequence (Q99572 whole entry): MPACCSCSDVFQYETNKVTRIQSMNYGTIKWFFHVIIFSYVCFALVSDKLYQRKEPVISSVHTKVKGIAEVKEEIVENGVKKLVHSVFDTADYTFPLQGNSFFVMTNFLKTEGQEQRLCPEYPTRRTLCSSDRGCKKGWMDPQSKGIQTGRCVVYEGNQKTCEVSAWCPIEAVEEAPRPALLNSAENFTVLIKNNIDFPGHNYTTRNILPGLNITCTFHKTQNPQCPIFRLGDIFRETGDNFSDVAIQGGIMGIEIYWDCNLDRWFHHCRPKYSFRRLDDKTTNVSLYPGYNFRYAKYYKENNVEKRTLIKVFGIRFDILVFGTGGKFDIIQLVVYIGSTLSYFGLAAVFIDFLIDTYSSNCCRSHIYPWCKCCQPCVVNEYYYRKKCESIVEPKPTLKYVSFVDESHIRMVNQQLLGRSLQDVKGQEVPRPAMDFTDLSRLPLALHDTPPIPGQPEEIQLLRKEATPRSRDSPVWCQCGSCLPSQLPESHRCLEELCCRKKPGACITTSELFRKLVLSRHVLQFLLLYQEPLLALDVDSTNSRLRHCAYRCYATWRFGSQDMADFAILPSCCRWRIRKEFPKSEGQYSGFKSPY
Format: cell-based

SMILES | IC50
Cc1ccc(S(=O)(=O)N2CCN(CCCn3c(=O)[nH]c4ccccc43)CC2)cc1 | > 10000 nM
O=c1[nH]c2ccccc2n1CCCN1CCN(S(=O)(=O)c2ccc([N+](=O)[O-])cc2)CC1 | > 10000 nM
c1ccc(-c2nnnn2CCCCN2CCN(C(c3ccccc3)c3ccccc3)CC2)cc1 | 3200 nM
Cc1cccc2c1ccn2CCCCN1CCN(C(c2ccccc2)c2ccccc2)CC1 | 5300 nM
Cc1nccn1CCCCN1CCN(C(c2ccccc2)c2ccccc2)CC1 | 3400 nM
O=C(C(c1ccccc1)c1ccccc1)N1CCN(CCCn2c(=O)[nH]c3ccccc32)CC1 | 7800 nM
N#Cc1ccc2c(ccn2CCCCN2CCN(C(c3ccccc3)c3ccccc3)CC2)c1 | 3800 nM
O=c1[nH]c2ccccc2n1C/C=C/CN1CCN(C(c2ccccc2)c2ccccc2)CC1 | > 10000 nM
COc1ccc2c(ccn2CCCCN2CCN(C(c3ccccc3)c3ccccc3)CC2)c1 | > 10000 nM
COC(=O)c1cccc2ccn(CCCCN3CCN(C(c4ccccc4)c4ccccc4)CC3)c12 | > 10000 nM
c1ccc(C(c2ccccc2)N2CCN(CCCCn3cncn3)CC2)cc1 | > 10000 nM
O=c1[nH]c2ccccc2n1CCCN1CCN(S(=O)(=O)c2ccc(F)cc2)CC1 | > 10000 nM
O=c1[nH]c2ccccc2n1CCCN1CCN(C2c3ccccc3CCc3ccccc32)CC1 | 5200 nM
O=c1[nH]c2ccccc2n1CCCN1CCC(C(O)(c2ccccc2)c2ccccc2)CC1 | 7500 nM
Cc1ccc2ccn(CCCCN3CCN(C(c4ccccc4)c4ccccc4)CC3)c2c1 | 6500 nM
Cc1nnnn1CCCCN1CCN(C(c2ccccc2)c2ccccc2)CC1 | 4500 nM

Now those with a lower IC50, led by results:

IC50 | SMILES
180 nM | O=c1[nH]c2ccccc2n1CCCCN1CCN(C(c2ccccc2)c2ccccc2)CC1
770 nM | Cc1cc2ncn(CCCCN3CCN(C(c4ccccc4)c4ccccc4)CC3)c2cc1C
120 nM | c1ccc(C(c2ccccc2)N2CCN(CCCCn3ccc4ccccc43)CC2)cc1
320 nM | c1ccc(C(c2ccccc2)N2CCN(CCCCn3ccc4ncccc43)CC2)cc1
950 nM | O=c1[nH]c2ccccc2n1CCN1CCN(C(c2ccccc2)c2ccccc2)CC1
190 nM | c1ccc(C(c2ccccc2)N2CCN(CCCCn3ncc4ccccc43)CC2)cc1
480 nM | c1ccc(C(c2ccccc2)N2CCN(CCCCn3nnc4ccccc43)CC2)cc1
130 nM | Fc1cc2ccn(CCCCN3CCN(C(c4ccccc4)c4ccccc4)CC3)c2cc1F
850 nM | Cc1nc2ccccc2n1CCCCN1CCN(C(c2ccccc2)c2ccccc2)CC1
560 nM | O=c1[nH]c2ccccc2n1CCCCCN1CCN(C(c2ccccc2)c2ccccc2)CC1
2400 nM | O=c1[nH]c2ccccc2n1CCCN1CCC(=C(c2ccccc2)c2ccccc2)CC1
2300 nM | Cc1cccc2ccn(CCCCN3CCN(C(c4ccccc4)c4ccccc4)CC3)c12
460 nM | c1ccc(C(c2ccccc2)N2CCN(CCCCn3ccc4cnccc43)CC2)cc1
180 nM | c1ccc(C(c2ccccc2)N2CCN(CCCCn3cnc4ccccc43)CC2)cc1
240 nM | c1ccc(C(c2ccccc2)N2CCN(CCCCn3ccc4ccncc43)CC2)cc1
150 nM | Fc1cccc2c1ccn2CCCCN1CCN(C(c2ccccc2)c2ccccc2)CC1
830 nM | O=c1[nH]c2ccccc2n1CCCN1CCN(C(c2ccccc2)c2ccccc2)CC1 [OXATOMIDE]
120 nM | Fc1ccc2c(ccn2CCCCN2CCN(C(c3ccccc3)c3ccccc3)CC2)c1
110 nM | Fc1ccc2ccn(CCCCN3CCN(C(c4ccccc4)c4ccccc4)CC3)c2c1
180 nM | c1ccc(C(c2ccccc2)N2CCN(CCCCn3ccc4cccnc43)CC2)cc1
1200 nM | c1ccc(-c2nc3ccccc3n2CCCCN2CCN(C(c3ccccc3)c3ccccc3)CC2)cc1
1500 nM | N#Cc1cn(CCCCN2CCN(C(c3ccccc3)c3ccccc3)CC2)c2ccccc12

The molecules below were run against T2, P2X purinoceptor 7 (Homo sapiens) (UniProt Q99572) (assay: Antagonist activity at P2X7 receptor in human RPMI-8226 cells assessed as inhibition of ATP-induced Ca2+ influx at 10 uM by fura-2 staining based assay relative to control). Details: filed as antagonist.
T2 sequence (whole entry): T1 sequence (Q99572 whole entry)
Format: cell-based

SMILES | inhibition
Cc1ccc(S(=O)(=O)N2CCN(CCCn3c(=O)[nH]c4ccccc43)CC2)cc1 | 64%
O=c1[nH]c2ccccc2n1CCCN1CCN(S(=O)(=O)c2ccc([N+](=O)[O-])cc2)CC1 | 72%
O=c1[nH]c2ccccc2n1C/C=C/CN1CCN(C(c2ccccc2)c2ccccc2)CC1 | 81%
COc1ccc2c(ccn2CCCCN2CCN(C(c3ccccc3)c3ccccc3)CC2)c1 | 54%
c1ccc(C(c2ccccc2)N2CCN(CCCCn3cncn3)CC2)cc1 | 87%
O=c1[nH]c2ccccc2n1CCCN1CCN(S(=O)(=O)c2ccc(F)cc2)CC1 | 87%
